Results as given in patent US20040147495A1, “Sapogenin derivatives, their synthesis and use, and methods based upon their use” (priority 2001, published 2004).

How the values were obtained:
[1] = test system: Sprague Dawley rats; assay: Alzheimer's disease model (amyloid β + ibotenic acid): step-through test; type: in vivo, rat; settings: for Step through test Error No: 18 mg/kg/day by gastric tube for two months, wrong responses in 5 min, * p < 0.05; for number of wrong responses in step-through test (in words): 18 mg/kg/day, 5 min
Text: (§1) In addition the co-injection of amyloid β with a small amount of ibotenic acid into the rat hippocampus synergistically produces neuronal loss with infiltration of glial cells not only adjacent but also far from the injected site (Morimoto et al., 1998: Neuroscience, 84, 479-487).
(§2) Our studies used the method of Morimoto (Morimoto et al., 1998: Neuroscience, 84, 479-487) with some modifications (unilateral instead of bilateral injection). Three months old, Sprague Dawley rats, were randomly divided into different groups. Injection of amyloid β1-40 and ibotenic acid (both from Sigma) was accomplished by means of a stereotaxic instrument (Stoelting Co.) and the coordinates were AP=−0.5 mm […], L=−2.8 mm […], H=−7.0 mm (ventral to dura). The dose for each rat was amyloid β1-40 (4 μg) and ibotenic acid (1 μg) in 1 μl of saline. The injection was completed in 20 min, and the needle was withdrawn 10 min later. Then the skin was sutured.
(§3) Episarsasapogenin cathylate, sarsasapogenin cathylate, episarsasapogenin ethylsuccinate (comparison compound), episarsasapogenin, epismilagenin and diosgenin (all at a dosage of 18 mg/kg/day) were administered to animals as stable suspensions in CMC-Na (0.5%) once daily through a gastric tube. The control and the Alzheimer's model group were given the same volume of CMC-Na (0.5%) once daily. The drugs and vehicles were given for a period of two months, starting 20 days before operation.
The effect of test compounds on memory was assessed using the step-through test. A 60×15×15 cm box, divided into 2 equally sized rooms, one dark room with copper rod base, which was electrically charged (40 V ac) when in use, while the other was a light room but not electrically charged. Between the two rooms there is an opening (hole) for the rat to go through. The experiment is carried out for each rat on two consecutive days. The first day is for training; when the rat is adapted in the box for the first 3 min, then put in the light room, with its back toward the hole, and the copper rods of the dark room are charged for 5 min. The second day is for testing, when the number of crosses in 5 min are recorded. Improvements in memory are signalled by a reduction in the number of crosses.

[2] = test system: muscarinic receptor; assay: Alzheimer's disease model (amyloid β + ibotenic acid): brain muscarinic receptor density by 3H-QNB; type: in vivo, rat; settings: Alzheimer's model rats; for brain muscarinic receptor density (in words): 18 mg/kg/day; for Muscarinic receptor Density: 18 mg/kg/day by gastric tube for two months, * p < 0.05
Text: as §1, §2, §3
The brain samples were homogenised, centrifuged, and the pellet of centrifugation at 27000×g was re-homogenised and used for measurement. The concentration of ^3H-QNB was chosen at the saturation range. After incubation and separation, the bound portion was measured by liquid scintillation counter.

[3] = test system: muscarinic receptor; assay: Cell based assay: muscarinic receptor number in transfected CHO cells by [3H]NMS binding; parameters: species or system Chinese hamster; settings: CHO cells expressing muscarinic receptor
Text: Chinese hamster ovary (CHO) cells transfected with a vector coding for a muscarinic receptor and/or beta adrenoreceptor. The cell line used for the majority of the experiments was a cell line expressing a muscarinic receptor.
The effects of epismilagenin cathylate, sarsasapogenin cathylate, episarsasapogenin cathylate, episarsasapogenin succinate, epismilagenin acetate and sarsasapogenin on the expression of m receptors in CHO cells transfected with vector for the m receptor were investigated. Receptor numbers were assayed using [^3H]NMS binding and subtracting non-specific binding. Compounds were dissolved in dimethyl sulphoxide (DMSO) and DMSO was used as a control.
(§4) Chinese hamster ovary (CHO) cells expressing high levels of muscarinic receptor (˜2.2 pmol mg protein^−1) were plated on a 24 well plate, 1 day before the start of the experiment. The culture medium was replaced with medium containing vehicle (DMSO) or the compounds.
(§5) The cells were incubated for 2/3 days, then after a medium change, cells were incubated for a further 2/3 days. The cells were incubated with a saturating concentration of labelled N-methyl-scopolamine, ([^3H]NMS). Cells were washed with ice cold phosphate-buffered saline (PBS) (3×) and bound [^3H]NMS determined by solubilising receptors with RIPA buffer followed by liquid scintillation counting.

[4] = test system: Aged Sprague-Dawley rats; assay: Y-maze learning and memory test in aged rats; type: in vivo, rat; settings: 18 mg kg−1 day−1 in food for three months
Description: (§6) Aged Sprague-Dawley rats aged were divided randomly into 4 groups, one control and groups treated for three months with either sarsasapogenin, episarsasapogenin cathylate or smilagenin (18 mg kg^−1 day^−1, n=10). A control group (n=14) of untreated young rats was also included in the study. The daily dose of drug was mixed in a minimum amount of food and was administered every morning separately to each rat.
A Y-maze apparatus was used for the learning and memory test. On the floor of each arm of the Y-maze is an array of copper rods to which electric current is applied whenever needed, with adjustable voltage. Each arm is 45 cm long and has a 15 W lamp at the end, which is turned on when needed. After 3 months drug administration, each rat was trained for 7 consecutive days, as follows. For each training session, the rat was put into one arm of the Y-maze, after two minutes rest, an electrical current was applied to the copper rods and the lamp of the clockwise arm was illuminated to indicate the non-stimulation area. If the rat went into that arm, one correct response was recorded, otherwise, one wrong response was recorded. This stimulation-response test was repeated 20 times each day, with a pause of 5 sec between each two consecutive tests. The number of correct responses following the twenty tests on the seventh day was used to express learning ability, (the higher the number the better the learning ability). The rats were then left resting for 30 days and the procedure was repeated once more. The number of correct responses of the 20 tests after the 30 day rest period was used to represent the memory ability

[5] = test system: rat primary cortical neurons; assay: Neuroprotection against glutamate-induced neurodegeneration (LDH release); type: cell-based; settings: rat primary cortical cultures pre-treated for 24 h, read 24 h after glutamate
Description: Rat cortical neurons were cultured for 10 days; at day 10 the medium was changed to a serum-free defined medium. On day 12, 24 hours before glutamate exposure, cultures were washed and medium was replaced with fresh medium containing positive control (β-oestradiol), test compounds (sarsasapogenin, episarsasapogenin cathylate or smilagenin) or vehicle control (DMSO, 0.25%).
On day 13, cultures were exposed to glutamate.
After the incubation period, the cultures were washed with and placed in fresh medium, supplemented with relevant compounds or vehicle to evaluate their protective effects, 24 h after glutamate exposure.
Neuronal cell survival was evaluated by measuring lactate dehydrogenase (LDH) activity released in the media 24 h after test compound treatment or glutamate+test compound exposure, using the CytoTox 96 non-radioactive kit and quantitated by measuring wavelength absorbance at 450 nm.

[6] = test system: muscarinic receptor; assay: Muscarinic receptor density in brain of aged rats (dual-site competitive 3H-QNB binding); type: in vivo, rat; settings: 18 mg kg−1 day−1 in food for three months
Description: as §6
Tissue preparation: Brains were removed quickly after decapitation, frozen in dry ice, and transferred to a freezer. The brains were homogenised and the pellet was finally suspended in buffer.
Dual-site competitive ligand binding assay: ^3H-QNB (quinuclinidyl benzilate) was used as the radio-ligand which was non-selective to M receptor subtypes in vitro. Pirenzipine was used as the selective non-radioactive competing agent. Protein concentration was determined by the micro-Lowry method.

[7] = test system: m3 muscarinic receptors; assay: CHO-β2/m3 co-transfected cell line: m3 receptor density ([3H]NMS); type: cell-based, Chinese hamster; settings: day 5
Description: as §4, §5
(§7) The results shown in FIG. 5 used a CHO cell line co-transfected to express both β2 adrenoceptors and m3 muscarinic receptors. To measure the β2 and m3 receptor density, both [^3H]NMS and [^3H]CGP were used.

[8] = test system: β2 adrenoceptors; assay: CHO-β2/m3 co-transfected cell line: β2 adrenoceptor density ([3H]CGP); type: cell-based, Chinese hamster; settings: day 5
Description: as §4, §5, §7

SMILES | Step through test Error No [1] | number of wrong responses in step-through test (in words) [1] | brain muscarinic receptor density (in words) [2] | Muscarinic receptor Density [2] | effect on decrease in muscarinic receptor number over the culturing period [3] | learning and memory ability (Y-maze) [4] | glutamate-induced neurodegeneration (LDH release) [5] | muscarinic receptor number in brain [6] | density of m3 receptors [7] | decrease in β2 adrenoceptors [8]
C[C@@H]1CC[C@@]2(OC1)O[C@H]1C[C@H]3[C@@H]4CC=C5C[C@@H](O)CC[C@]5(C)[C@H]4CC[C@]3(C)[C@H]1[C@@H]2C [diosgenin, reference compound] | 3.75 ± 1.49 | ineffective in decreasing the number of wrong responses | did not significantly change the muscarinic receptor density | 770 ± 68 fmol/mg/protein |  |  |  |  |  | 
CCOC(=O)O[C@@H]1CC[C@@]2(C)[C@H](CC[C@@H]3[C@@H]2CC[C@]2(C)[C@@H]4[C@H](C[C@@H]32)O[C@]2(CC[C@H](C)CO2)[C@H]4C)C1 [episarsasapogenin cathylate, 3-Ethoxycarbonyl 5β,20α,22α,25S-spirostan-3α-ol] | 1.36 ± 0.92* | significantly decreased the number of wrong responses | significant elevation in brain muscarinic receptor density | 877 ± 89* fmol/mg/protein | prevents the decrease in muscarinic receptor number | restored the learning and memory ability | significant reduction in the glutamate-induced neurodegeneration | significantly restored the muscarinic receptor number |  | 
CCOC(=O)CCC(=O)OC1CCC2(C)C(CCC3C2CCC2(C)C3CC3OC4(CCC(C)CO4)C(C)C32)C1 (stereo not shown) [episarsasapogenin ethylsuccinate, reference compound] | 3.73 ± 1.35 | ineffective in decreasing the number of wrong responses | did not significantly change the muscarinic receptor density | 774 ± 79 fmol/mg/protein |  |  |  |  |  | 
CC1CCC2(OC1)OC1CC3C4CCC5CC(OC(=O)CCC(=O)O)CCC5(C)C4CCC3(C)C1C2C (stereo not drawn) [episarsasapogenin succinate, mono-3α,5β,20α,22α,25S-spirostanyl succinate] |  |  |  |  | prevents the decrease in muscarinic receptor number |  |  |  |  | 
C[C@H]1CC[C@@]2(OC1)O[C@H]1C[C@H]3[C@@H]4CC[C@@H]5C[C@H](O)CC[C@]5(C)[C@H]4CC[C@]3(C)[C@H]1[C@@H]2C [episarsasapogenin] | 1.50 ± 1.18* | significantly decreased the number of wrong responses | significant elevation in brain muscarinic receptor density | 869 ± 104* fmol/mg/protein |  |  |  |  |  | 
CC(=O)OC1CCC2(C)C(CCC3C2CCC2(C)C3CC3OC4(CCC(C)CO4)C(C)C32)C1 (stereo not shown) [epismilagenin acetate] |  |  |  |  |  |  |  |  | did not significantly alter the density of m3 receptors | significantly prevented
CCOC(=O)O[C@@H]1CC[C@@]2(C)[C@H](CC[C@@H]3[C@@H]2CC[C@]2(C)[C@@H]4[C@H](C[C@@H]32)O[C@]2(CC[C@@H](C)CO2)[C@H]4C)C1 [epismilagenin cathylate, 3-Ethoxycarbonyl 5β,20α,22α,25R-spirostan-3α-ol] |  |  |  |  | prevents the decrease in muscarinic receptor number |  |  |  |  | 
C[C@@H]1CC[C@@]2(OC1)O[C@H]1C[C@H]3[C@@H]4CC[C@@H]5C[C@H](O)CC[C@]5(C)[C@H]4CC[C@]3(C)[C@H]1[C@@H]2C [epismilagenin] | 1.73 ± 0.91* | significantly decreased the number of wrong responses | significant elevation in brain muscarinic receptor density | 877 ± 90* fmol/mg/protein |  |  |  |  |  | 
CCOC(=O)O[C@H]1CC[C@@]2(C)[C@H](CC[C@@H]3[C@@H]2CC[C@]2(C)[C@@H]4[C@H](C[C@@H]32)O[C@]2(CC[C@H](C)CO2)[C@H]4C)C1 [sarsasapogenin cathylate, 3-Ethoxycarbonyl 5β,20α,22α,25S-spirostan-3-β-ol] | 1.36 ± 1.03* | significantly decreased the number of wrong responses | significant elevation in brain muscarinic receptor density | 916 ± 158* fmol/mg/protein | prevents the decrease in muscarinic receptor number |  |  |  |  | 
C[C@H]1CC[C@@]2(OC1)O[C@H]1C[C@H]3[C@@H]4CC[C@@H]5C[C@@H](O)CC[C@]5(C)[C@H]4CC[C@]3(C)[C@H]1[C@@H]2C [sarsasapogenin] |  |  |  |  | prevents the decrease in muscarinic receptor number | restored the learning and memory ability | significant reduction in the glutamate-induced neurodegeneration | significantly restored the muscarinic receptor number |  | 
C[C@@H]1CC[C@@]2(OC1)O[C@H]1C[C@H]3[C@@H]4CC[C@@H]5C[C@@H](O)CC[C@]5(C)[C@H]4CC[C@]3(C)[C@H]1[C@@H]2C [smilagenin] |  |  |  |  |  | restored the learning and memory ability | significant reduction in the glutamate-induced neurodegeneration | significantly restored the muscarinic receptor number |  | 
